In PubChem BioAssay AID588401 (Johns Hopkins Ion Channel Center, 2011):
The source made the active and inactive calls.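 How the source made its calls: active means blocks the choline transporter at some tested dose and yields a fitted dose response curve; inconclusive means no clear call, values can overlap the other calls; inactive means no blocking at any dose or no curve.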

Target: High affinity choline transporter 1 (Homo sapiens) (UniProt Q9GZV3)
Assay: human choline transporter blockers, potency – cell-based, 10-point CRC, membrane potential dye, dose response (AID 588401)
Conditions: HEK293-CHT, choline-induced depolarization, at 25 µM (top of the series), cells express LV-AA mutant CHT

Sequence of High affinity choline transporter 1 (Homo sapiens) (Q9GZV3 whole entry, looked up): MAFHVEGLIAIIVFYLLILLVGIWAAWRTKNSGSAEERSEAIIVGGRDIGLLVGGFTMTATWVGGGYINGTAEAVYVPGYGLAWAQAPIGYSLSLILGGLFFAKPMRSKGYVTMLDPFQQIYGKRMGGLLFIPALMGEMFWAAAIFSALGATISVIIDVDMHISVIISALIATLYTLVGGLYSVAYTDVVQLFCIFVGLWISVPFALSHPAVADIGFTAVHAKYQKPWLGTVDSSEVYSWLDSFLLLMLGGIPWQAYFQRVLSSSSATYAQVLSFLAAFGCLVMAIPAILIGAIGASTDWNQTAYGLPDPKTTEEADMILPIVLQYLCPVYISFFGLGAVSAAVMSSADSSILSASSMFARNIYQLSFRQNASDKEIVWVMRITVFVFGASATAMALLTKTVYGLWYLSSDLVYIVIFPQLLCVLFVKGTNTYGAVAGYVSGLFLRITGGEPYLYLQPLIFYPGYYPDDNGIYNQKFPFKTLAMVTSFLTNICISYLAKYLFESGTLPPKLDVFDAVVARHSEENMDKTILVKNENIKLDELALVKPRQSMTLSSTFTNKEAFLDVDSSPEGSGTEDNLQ

Row | Structure (SMILES) | inhibition (negative values = inhibition)
1 | CCN(CC(=O)Nc1cccc(OC)c1)c1ncnc2sc(C)c(C)c12 | inactive
2 | CC1CCCCC1NC(=O)c1c(O)nc2ccccn2c1=O (stereo unspecified) | inactive
3 | Cn1c(-c2sc3ccccc3c2Cl)n[nH]c1=S | inactive
4 | CCc1cc2c(NCc3ccco3)ncnc2s1 | inactive
5 | Cc1ccc(N2NC(=O)/C(=C\c3cc4c(cc3[N+](=O)[O-])OCO4)C2=O)cc1C | inactive
6 | CCOC(=O)Cc1csc(NS(=O)(=O)c2ccc3c4c(cccc24)C(=O)N3CC)n1 | inactive
7 | CC1CCCCC1NC(=O)Cn1nnc(-c2ccc(Cl)cc2)n1 (stereo unspecified) | inactive
8 | CCCNc1nc2c(c(=O)n(C)c(=O)n2C)n1CCC(C)C | inactive
9 | COc1cc(/C=C2/C(=O)ON=C2c2ccccc2)ccc1O | inactive
10 | COC(=O)/C(=C/c1c[nH]c2ccccc12)[N+](=O)[O-] | inactive
11 | CCOC(=O)c1nc(NNC(=O)c2ccc([N+](=O)[O-])cc2)sc1C | inactive
12 | COCCCNC(=O)c1ccc(OC)c(OC2CCN(C(C)C)CC2)c1 | inactive
13 | Cc1cc(Cl)ccc1OCCCC(=O)N1CCN(C(=O)c2ccco2)CC1 | inactive
14 | CN(CCC#N)C(=O)COC(=O)c1ccccc1C(=O)c1ccc(Cl)c([N+](=O)[O-])c1 | inactive
15 | Cc1ccc(C(=O)CSc2nnc(-c3ccco3)n2C)cc1 | inactive
16 | CC(Oc1ccccc1Cl)C(=O)Nc1ccc(S(=O)(=O)Nc2nccs2)cc1 (stereo unspecified) | inactive
17 | CCc1cc2c(N3CCN(c4nnc(CC)s4)CC3)ncnc2s1 | inactive
18 | Cc1cccc(OCC(O)Cn2c(=N)n(Cc3ccccc3)c3ccccc32)c1 (stereo unspecified) | inactive
19 | O=C(Nc1ccn(Cc2ccccc2)n1)c1n[nH]c([N+](=O)[O-])c1Cl | inactive

Further lines, results first:

Row | inhibition (negative values = inhibition) | Structure (SMILES)
20 | inactive | CC(C)Nc1nc(Cl)nc(N(C#N)CN2C(=O)c3ccccc3C2=O)n1
21 | inactive | CCOC(=O)N1CCC(NC(=O)C2CCCN(Cc3nc(-c4cccc(Cl)c4)oc3C)C2)CC1 (stereo unspecified)
22 | inactive | NC(=S)N/N=C1/CCSc2ccc3ccccc3c21
23 | inactive | CCOC(=O)c1sc(NC(=O)CCN2C(=O)c3cccc([N+](=O)[O-])c3C2=O)c(C(=O)OCC)c1C
24 | inactive | COc1cc(/C=C2/C(=O)c3cccc([N+](=O)[O-])c3C2=O)c(Br)cc1O
25 | inactive | Cc1ccc(C)c(OCC(=O)Nc2ccc(S(=O)(=O)Nc3ccccn3)cc2)c1C
26 | inactive | COc1ccc(-c2csc(Cc3nnc4n3CCCCC4)n2)cc1
27 | inactive | O=C1NC(c2ccccc2)=C(c2ccc3ccccc3n2)C(c2ccncc2)N1 (stereo unspecified)
28 | inactive | O=[N+]([O-])c1cc(Cc2ccccc2)cc(C=Nc2ccc(N3CCOCC3)cc2)c1O
29 | inactive | O=C(NC1CCCCC1)C(c1ccc2ncccc2c1)N(Cc1ccccc1)C(=O)c1ccc2c(c1)OCCO2 (stereo unspecified)
30 | inactive | CC(SCc1ccccc1)C(=O)N/N=C/c1ccc(OCC(=O)NCc2ccco2)cc1 (stereo unspecified)
31 | inactive | CC(C)C(=O)Nc1cccc(NC(=O)c2ccc(Cl)cc2Cl)c1
